Values quoted from earlier work, collected in publication PMC2962921 (Chembiochem : a European journal of chemical biology, 2008).
Where two headings read alike, the source gives them in different places.

Target: Gαi1*GDP

Kd (binding to heterotrimeric inhibitory G protein Gαi1*GDP) [nM] | Kd (R6A peptide, competitor in the equilibrium competition) [nM] | Sequence
200 | – | DKLYWWEFL
– | 60 | MSQTKRLDDQLYWWEYL [R6A]
